≈ marks a conversion by molar mass, not a printed value. Where “and” joins values, the source holds several entries; their conditions need not be identical. Equal values may be shown once. Non-standard residues stand in square brackets, D forms with d. Residues, ends and D or L forms follow the SMILES beside them. *: point of attachment. Leu(ol) = CC(C)C[C@H](N)CO; Octanoyl = CCCCCCCC(=O)*; Aib = CC(C)(N)C(=O)O
Columns and labels:
[1] = test system: Streptococcus pyogenes ATCC 12344; conditions: MHB, 5 × 10^5 CFU/mL, 18 h, 35 °C, triplicate
Text: (§1) The antibacterial activity of the peptides was initially assessed on a panel of representative Gram-positive and Gram-negative organisms of high clinical relevance and commonly responsible for bacterial infections in both animals and humans. Bacillus subtilis ATCC 6633 (Bsu) was also included as a rod-shaped model Gram-positive organism. This first panel comprised: Enterococcus faecalis ATCC 29212 (Efa); Streptococcus pyogenes ATCC 12344 (Spy); and Staphylococcus aureus ATCC 25923 (Sau); Gram-negative: Escherichia coli CCUGT (Eco), Klebsiella pneumoniae ATCC 13833 (Kpn), Acinetobacter baumannii ATCC 17978 (Aba), and Pseudomonas aeruginosa ATCC 27853 (Pae) (Table 2). Both the minimum inhibitory concentration (MIC, Table 2) and the minimum bactericidal concentration (MBC, Table S1, Supporting Material) were determined.
(§2) The minimum inhibitory concentration (MIC) and the minimum bactericidal concentration (MBC) of the compounds were determined in triplicate using Mueller–Hinton broth (MHB). […] Therefore, we decided to dissolve all peptides in DMSO to a final concentration of 25 mg/mL, for consistency. The bacteria inoculum was 5 × 10^5 CFU/mL, as recommended by CLSI (Document M07-A10, 2015). […] Reference-type strains, including representatives of both Gram-positive bacteria (Bacillus subtilis ATCC 6633, Enterococcus faecalis ATCC 29212, Staphylococcus aureus ATCC 25923, the methicillin-resistant Staphylococcus aureus ATCC 43300 (MRSA), Streptococcus pyogenes ATCC 12344) and Gram-negative bacteria (Escherichia coli CCUGT, Klebsiella pneumoniae ATCC 13833, Pseudomonas aeruginosa ATCC 27853, and Acinetobacter baumannii ATCC 17978), were acquired from ATCC or CCUG culture collections. Other antibiotic-resistant clinical isolates were present in our collection at the University Teaching Hospital (Azienda Ospedaliero-Universitaria Senese ‘Santa Maria alle Scotte’) in Siena, Tuscany, Italy. Specifically, MDR carbapenem-hydrolyzing class D β-lactamase-producing Acinetobacter baumannii and metallo-β-lactamase-producing Pseudomonas aeruginosa were used in this study (Table 4).

[2] = test system: Klebsiella pneumoniae ATCC 13833; conditions: MHB, 5 × 10^5 CFU/mL, 18 h, 35 °C, triplicate
Text: as §1, §2

[3] = test system: Acinetobacter baumannii ATCC 17978; conditions: for MIC against A. baumannii, in molar units: corresponding to 2 and 8 μg/mL
Text: as §1, §2

[4] = test system: reference Gram-positive and Gram-negative strains; conditions: lowest value over the eight reference strains
Text: as §1, §2

Escherichia coli CCUGT = conditions: MHB, 5 × 10^5 CFU/mL, 18 h, 35 °C, triplicate
Text: as §1, §2

[5] = test system: Staphylococcus aureus ATCC 25923; conditions: MHB, 5 × 10^5 CFU/mL, 18 h, 35 °C, triplicate
Text: as §1, §2

[6] = test system: Bacillus subtilis ATCC 6633; conditions: MHB, 5 × 10^5 CFU/mL, 18 h, 35 °C, triplicate
Text: as §1, §2

[7] = test system: Enterococcus faecalis ATCC 29212; conditions: MHB, 5 × 10^5 CFU/mL, 18 h, 35 °C, triplicate
Text: as §1, §2

[8] = test system: blood agar plate (Columbia CNA Agar); test: Hemolysis on blood agar plate; conditions: 35 ± 2 °C, 24 h; for Hemolysis (class): 50 μg peptide (2 μL of 25 mg/mL in DMSO) spotted on blood agar, visual, triplicate
Description: Hemolysis zones were visually determined and measured. […] For two additional peptides (6 and 15), only a small hemolysis zone (diameter 4–5 mm) was visible, as compared to that of the positive control (Triton X-100, 13 mm).
Briefly, 2 μL of each peptide solution in DMSO (25 mg/mL), corresponding to 50 μg, was spotted on the surface of a blood agar plate (Columbia CNA Agar, Becton Dickinson Italia S.p.A., Florence, Italy). The plate was then incubated at 35 ± 2 °C for 24 h and visually inspected for the presence of hemolysis zones (see Figure S13, Supplementary Material). The experiment was performed in triplicate. Table 2 reports the average value of the diameter of hemolysis zones measured in each individual experiment. Triton X-100 was used as a positive control (diameter of the hemolysis zone: 13 mm), while DMSO was used as a negative control.
Figure S13. Implementation of the hemolysis test as described in Bechlars et al.. After spotting
2 µL (50 µg) of each compound at a random location on the blood agar plate and incubation at 35 ±
2 °C for 24 h, the plates were manually inspected for the presence of hemolysis zones. Triton X-100
and DMSO were used as the positive and negative controls, respectively. Results were interpreted
(1 picture or pasted object on this page, not shown here)

[9] = test system: A. baumannii SI-310 (OXA-24); conditions: colistin-resistant isolate; MHB, 5 × 10^5 CFU/mL, 18 h, 35 °C, triplicate
Description: as §2

[10] = test system: P. aeruginosa 506/99 (VIM-2); conditions: MHB, 5 × 10^5 CFU/mL, 18 h, 35 °C, triplicate
Description: as §2

[11] = test system: A. baumannii SI-648 (OXA-23, OXA-51-like); conditions: MHB, 5 × 10^5 CFU/mL, 18 h, 35 °C, triplicate
Description: as §2

[12] = test system: S. aureus ATCC 43300 (MRSA); conditions: MHB, 5 × 10^5 CFU/mL, 18 h, 35 °C, triplicate
Description: as §2

[13] = test system: P. aeruginosa 101/1477 (IMP-1); conditions: MHB, 5 × 10^5 CFU/mL, 18 h, 35 °C, triplicate
Description: as §2

[14] = test system: A. baumannii SI-12 (OXA-23); conditions: MHB, 5 × 10^5 CFU/mL, 18 h, 35 °C, triplicate
Description: as §2

[15] = test system: P. aeruginosa VR-143/97 (VIM-1); conditions: MHB, 5 × 10^5 CFU/mL, 18 h, 35 °C, triplicate
Description: as §2

[16] = test system: P. aeruginosa VA-182/00 (VIM-2); conditions: MHB, 5 × 10^5 CFU/mL, 18 h, 35 °C, triplicate
Description: as §2

[17] = test system: Pseudomonas aeruginosa ATCC 27853; conditions: MHB, 5 × 10^5 CFU/mL, 18 h, 35 °C, triplicate
Text: as §1, §2

[18] = MHB, 5 × 10^5 CFU/mL, 18 h, 35 °C, triplicate

Row | SMILES | MBC Spy [1] | MIC Spy [1] | MIC Kpn [2] | MBC Aba [3, 18] | MIC against A. baumannii, in molar units [3] | MIC Eco (Escherichia coli CCUGT) | MIC Sau [5] | MBC Bsu [6] | MIC Bsu [6] | MBC Efa [7] | MIC Efa [7] | Hemolysis (class) [8] | MBC A. baumannii SI-310 (OXA-24) [9] | MIC A. baumannii SI-310 (OXA-24) [9] | MIC P. aeruginosa 506/99 (VIM-2) [10] | MBC A. baumannii SI-648 (OXA-23, OXA-51-like) [11] | MIC A. baumannii SI-648 (OXA-23, OXA-51-like) [11] | MBC S. aureus ATCC 43300 (MRSA) [12] | MIC S. aureus ATCC 43300 (MRSA) [12] | MIC P. aeruginosa 101/1477 (IMP-1) [13] | further results
1 | CCCCCCCC(=O)NC(C)(C)C(=O)N[C@@H](CCCCN)C(=O)N[C@@H](CC(C)C)C(=O)NC(C)(C)C(=O)N[C@@H](CCCCN)C(=O)N[C@@H](CCCCN)C(=O)N[C@@H](CC(C)C)C(=O)NC(C)(C)C(=O)NCC(=O)N[C@H](C(=O)N[C@@H](CC(C)C)C(N)=O)[C@@H](C)CC [Peptide 11, 1-Oct-Aib-Lys-Leu-Aib-Lys-Lys-Leu-Aib-Gly-Ile-Leu-NH2] (Octanoyl-[Aib]KL[Aib]KKL[Aib]GIL-NH2) | 16 µg/mL (≈ 12.4 µM) | 4 µg/mL (≈ 3.09 µM) | > 128 µg/mL | 2 µg/mL (≈ 1.55 µM) | 1.8 to 7.2 µM | 16 µg/mL (≈ 12.4 µM) | 16 µg/mL (≈ 12.4 µM) | 16 µg/mL (≈ 12.4 µM) | 2 µg/mL (≈ 1.55 µM) | 32 µg/mL (≈ 24.8 µM) | 4 µg/mL (≈ 3.09 µM) | - | 4 µg/mL (≈ 3.09 µM) | 2 µg/mL (≈ 1.55 µM) | 8 µg/mL (≈ 6.19 µM) | 4 µg/mL (≈ 3.09 µM) | 2 µg/mL (≈ 1.55 µM) | 2 µg/mL (≈ 1.55 µM) | 2 µg/mL (≈ 1.55 µM) | 8 µg/mL (≈ 6.19 µM) | MIC Aba [3, 18]: 2 µg/mL (≈ 1.55 µM); lowest MIC [4]: 2 µg/mL; MBC Eco (Escherichia coli CCUGT): 128 µg/mL (≈ 99 µM); MBC P. aeruginosa 506/99 (VIM-2) [10]: 16 µg/mL (≈ 12.4 µM); MBC P. aeruginosa 101/1477 (IMP-1) [13]: 8 µg/mL (≈ 6.19 µM); MBC A. baumannii SI-12 (OXA-23) [14]: 32 µg/mL (≈ 24.8 µM); MIC A. baumannii SI-12 (OXA-23) [14]: 32 μg/mL and 32/32 μg/mL; MBC P. aeruginosa VR-143/97 (VIM-1) [15]: 8 µg/mL (≈ 6.19 µM); MIC P. aeruginosa VR-143/97 (VIM-1) [15]: 8 µg/mL (≈ 6.19 µM); MBC P. aeruginosa VA-182/00 (VIM-2) [16]: 32 µg/mL (≈ 24.8 µM); MIC P. aeruginosa VA-182/00 (VIM-2) [16]: 8 µg/mL (≈ 6.19 µM)
2 | CCCCCCCC(=O)NC(C)(C)C(=O)NCC(=O)N[C@@H](CC(C)C)C(=O)NC(C)(C)C(=O)NCC(=O)NCC(=O)N[C@@H](CC(C)C)C(=O)NC(C)(C)C(=O)N[C@@H](CCCCN)C(=O)N[C@H](C(=O)N[C@H](CO)CC(C)C)[C@@H](C)CC [Peptide 9, 1-Oct-Aib-Gly-Leu-Aib-Gly-Gly-Leu-Aib-Lys-Ile-Lol] (Octanoyl-[Aib]GL[Aib]GGL[Aib]KI[Leu(ol)]) | 32 µg/mL (≈ 28.1 µM) | 16 µg/mL (≈ 14.1 µM) | > 128 µg/mL | 8 µg/mL (≈ 7.03 µM) | 1.8 to 7.2 µM | > 128 µg/mL | 16 µg/mL (≈ 14.1 µM) | 16 µg/mL (≈ 14.1 µM) | 4 µg/mL (≈ 3.52 µM) | 4 µg/mL (≈ 3.52 µM) | 4 µg/mL (≈ 3.52 µM) | + | 32 µg/mL (≈ 28.1 µM) | 32 μg/mL and 32/32 μg/mL | > 128 µg/mL | 32 µg/mL (≈ 28.1 µM) | 32 μg/mL and 32/32 μg/mL | 8 µg/mL (≈ 7.03 µM) | 4 µg/mL (≈ 3.52 µM) | > 128 µg/mL | MIC Pae [17]: > 128 µg/mL; MBC Sau [5]: 16 µg/mL (≈ 14.1 µM); Hemolysis (d, diameter of hemolysis zone) ([8]; 50 μg spotted on blood agar, average of triplicate): 10 mm; MBC A. baumannii SI-12 (OXA-23) [14]: 32 µg/mL (≈ 28.1 µM); MIC A. baumannii SI-12 (OXA-23) [14]: 32 μg/mL and 32/32 μg/mL; MIC P. aeruginosa VR-143/97 (VIM-1) [15]: > 128 µg/mL; MIC P. aeruginosa VA-182/00 (VIM-2) [16]: > 128 µg/mL

— article PMC10178204, “Peptaibol Analogs Show Potent Antibacterial Activity against Multidrug Resistant Opportunistic Pathogens” (International Journal of Molecular Sciences, 2023)
